Measurements taken from PMC8116058, “De novo macrocyclic peptides dissect energy coupling of a heterodimeric ABC transporter by multimode allosteric inhibition” (eLife, 2021).
Positions of bridges follow the written chain, without caps; N, C: chain ends. Non-standard residues stand in square brackets, D forms with d. Residues, ends and D or L forms follow the SMILES beside them. *: point of attachment. 5FAM = O=C1OC2(c3ccc(O)cc3Oc3cc(O)ccc32)c2ccc(C(=O)*)cc21; βAla = NCCC(=O)O

Test system: wild-type TmrAB in liposomes
Experiment: Single-liposome flow cytometry transport assay
Format: biochemical, Thermus thermophilus
Conditions: for Peptide transport in two successive IF-to-OF cycles: 5 min 45°C / 60 min 4°C, repeated; for Transported C4^ATTO655, Peptides/liposome: TmrAB 0.4 µM, ATP 3 mM, ATP without CP 84.57, ADP 3.52; for Transported C4^ATTO655, Peptides/liposome / Peptides/liposome, time course / Mean fluorescence intensity * 10^3, time course: C4^ATTO655 1 µM; for Peptides/liposome, two consecutive transport cycles: ADP background corrected; for Peptides/liposome, time course: corrected by ADP background
Procedure: To investigate whether an IF-to-OF transition and conformational arrest by CP13^F or CP14^F can still result in a productive substrate translocation, we followed peptide transport by wild-type TmrAB by single liposome-based flow cytometry (Figure 6A). […] CPs block multiple-turnover transport monitored by quantitative flow cytometry. (A) Single turnover by IF-to-OF switch monitored by single-liposome flow cytometry. […] Transport reactions were stopped by the addition of EDTA (10 mM). 100,000 proteoliposomes were analyzed by flow cytometry monitoring fluorescein and ATTO655 intensities. […] (C, D) Slowdown of multiple-turnover substrate transport. […] Transported peptides per liposomes were evaluated and corrected by ADP background levels as described in (B). Transport kinetics were fitted monoexponentially. […] (E) Two consecutive transport cycles. […] Transported peptides per liposome were evaluated as described in (B) and corrected by background levels in the presence of ADP. […] Figure 6-source data 1. Source data for Figure 6. Figure 6-figure supplement 1. Linear regression of quantitative flow cytometry analysis. (A) Gating strategy. Liposomes were selected according to side and forward scatter areas. Single liposomes were gated based on the height of forward scatter correlated to the area of forward scatter. […] Detergent was removed, and liposomes were extensively washed by centrifugation. […] Equal concentrations of fluorescein served as loading control (right). (C) Linear regression. […] Mean values ± SD (n = 3) are shown. Figure 6-figure supplement 1-source data 1. Source Data for Figure 6-figure supplement 1. [drawing 5] […] To confirm the conformational arrest of wild-type TmrAB by CP13^F and the slow turnover in the presence of CP14^F, we examined two successive cycles of conformational transitions by flow cytometry. […] Both steps were repeated to yield two consecutive cycles of conformational transitions. […] Taken together, the macrocyclic peptides CP13 and CP14 stabilize a pre-hydrolysis state, thus allowing a single-turnover translocation along the IF-to-OF switch. […] Transport reactions were stopped by adding EDTA (10 mM). […] For regression analysis, liposomes were loaded with increasing amounts of peptides to convert the fluorescence intensities into the number of peptides per liposome ([Stefan et al., 2020]). […] Equal amounts of carboxyfluorescein (Sigma-Aldrich) served as loading control. Detergent was removed by adding SM-2 Bio-beads (Bio-Rad) as detailed above. Liposomes were harvested for 30 min at 270,000 g and washed three times by centrifugation. Generally, 20,000-100,000 proteoliposomes were selected according to sideward and forward scatter areas. Single events were selected based on the height of forward scatter plotted against the area of forward scatter. […] Data represent mean ± SD from three experiments.

[1] = time 5 min (after first 5 min at 45°C)
[2] = time 65 min (after 60 min at 4°C)
[3] = time 70 min (after second 5 min at 45°C)
[4] = time 130 min (after second 60 min at 4°C)

Compound	Peptide transport in two successive IF-to-OF cycles	Effect on C4^ATTO655 peptide translocation (CP^F 1 µM, 5 min 45°C)	Transported C4^ATTO655, Peptides/liposome (CP^F 1 µM, 5 min 45°C) [Peptides/liposome]	Peptides/liposome, two consecutive transport cycles (time 0 min) [Peptides/liposome]	Peptides/liposome, two consecutive transport cycles [1] [Peptides/liposome]	Peptides/liposome, two consecutive transport cycles [2] [Peptides/liposome]	Peptides/liposome, two consecutive transport cycles [3] [Peptides/liposome]	Peptides/liposome, two consecutive transport cycles [4] [Peptides/liposome]	also measured
CC[C@H](C)[C@@H]1NC(=O)[C@H]([C@@H](C)O)NC(=O)[C@H](CC(C)C)NC(=O)[C@H](Cc2c[nH]c3ccccc23)NC(=O)[C@H](Cc2ccccc2)NC(=O)[C@H](CC(N)=O)NC(=O)[C@H](CCC(=O)O)NC(=O)[C@H](CC(C)C)NC(=O)[C@H](CS)NC(=O)[C@H](Cc2c[nH]cn2)NC(=O)[C@H](CO)NC(=O)[C@@H](Cc2ccc(O)cc2)NC(=O)CSC[C@@H](C(=O)NCC(=O)N[C@@H](CO)C(=O)NCCC(=O)NCCC(=O)N[C@@H](CCCNC(=N)N)C(=O)N[C@@H](CCCCNC(=O)c2ccc3c(c2)C(=O)OC32c3ccc(O)cc3Oc3cc(O)ccc32)C(N)=O)NC(=O)[C@H](CC(C)C)NC1=O [CP6] ({CH2CO}-[dY]SHCLENFWLTILCGS[βAla][βAla]RK(5FAM)-NH2; thioether N-14)	peptide translocation was completely abrogated	completely prevented C4^ATTO655 peptide translocation	4.74	0.00	0.17	0.01	1.93	1.54	–
CC(C)C[C@@H]1NC(=O)[C@H](Cc2ccccc2)NC(=O)CNC(=O)[C@H](CO)NC(=O)[C@H](Cc2ccccc2)NC(=O)[C@H](CC(=O)O)NC(=O)[C@@H]2CCCN2C(=O)[C@H]([C@@H](C)O)NC(=O)[C@@H](Cc2ccc(O)cc2)NC(=O)CSC[C@@H](C(=O)NCC(=O)N[C@@H](CO)C(=O)NCCC(=O)NCCC(=O)N[C@@H](CCCNC(=N)N)C(=O)N[C@@H](CCCCNC(=O)c2ccc3c(c2)C(=O)OC32c3ccc(O)cc3Oc3cc(O)ccc32)C(N)=O)NC(=O)[C@H](C)NC(=O)[C@H](CC(N)=O)NC(=O)[C@H](CCCNC(=N)N)NC(=O)[C@H](CC(C)C)NC(=O)[C@H](Cc2ccccc2)NC(=O)[C@H](C)NC1=O [CP12] ({CH2CO}-[dY]TPDFSGFLAFLRNACGS[βAla][βAla]RK(5FAM)-NH2; thioether N-16)	peptide translocation was completely abrogated	completely prevented C4^ATTO655 peptide translocation	4.93	0.00	1.11	1.17	1.70	1.01	–
CC[C@H](C)[C@@H]1NC(=O)[C@H](Cc2c[nH]c3ccccc23)NC(=O)[C@H](CC(N)=O)NC(=O)[C@H](C)NC(=O)[C@H](CO)NC(=O)[C@@H]2CCCN2C(=O)[C@H](CC(=O)O)NC(=O)[C@@H](Cc2ccc(O)cc2)NC(=O)CSC[C@@H](C(=O)NCC(=O)N[C@@H](CO)C(=O)NCCC(=O)NCCC(=O)N[C@@H](CCCNC(=N)N)C(=O)N[C@@H](CCCCNC(=O)c2ccc3c(c2)C(=O)OC32c3ccc(O)cc3Oc3cc(O)ccc32)C(N)=O)NC(=O)[C@H]([C@@H](C)O)NC(=O)[C@H](CC(C)C)NC(=O)[C@H](CC(C)C)NC(=O)[C@H](C(C)C)NC(=O)[C@H](CC(C)C)NC1=O [CP13] ({CH2CO}-[dY]DPSANWILVLLTCGS[βAla][βAla]RK(5FAM)-NH2; thioether N-14; C-terminus assumed)	peptide transport was exclusively observed along the first IF-to-OF switch	–	13.69	0.00	9.32	10.24	10.66	11.66	Peptides/liposome, time course (1 min at 45°C, CP^F 1 µM): -0.42 Peptides/liposome; Mean fluorescence intensity * 10^3, time course (1 min at 45°C, CP^F 1 µM, without CP 2.29): -0.03 * 10^3; Peptides/liposome, time course (3 min at 45°C, CP^F 1 µM): 2.53 Peptides/liposome; Mean fluorescence intensity * 10^3, time course (3 min at 45°C, CP^F 1 µM, without CP 10.49): 0.17 * 10^3; Peptides/liposome, time course (5 min at 45°C, CP^F 1 µM): 3.33 Peptides/liposome; Mean fluorescence intensity * 10^3, time course (5 min at 45°C, CP^F 1 µM, without CP 18.11): 0.23 * 10^3; Peptides/liposome, time course (10 min at 45°C, CP^F 1 µM): 5.08 Peptides/liposome; Mean fluorescence intensity * 10^3, time course (10 min at 45°C, CP^F 1 µM, without CP 30.27): 0.35 * 10^3; Peptides/liposome, time course (20 min at 45°C, CP^F 1 µM): 4.95 Peptides/liposome; Mean fluorescence intensity * 10^3, time course (20 min at 45°C, CP^F 1 µM, without CP 40.72): 0.34 * 10^3; Peptides/liposome, time course (40 min at 45°C, CP^F 1 µM): 5.22 Peptides/liposome; Mean fluorescence intensity * 10^3, time course (40 min at 45°C, CP^F 1 µM, without CP 51.44): 0.36 * 10^3; C4^ATTO655 peptides per liposome transported along a single IF-to-OF switch (CP^F 1 µM, 5 min 45°C, ~30 transport-competent TmrAB per liposome): approx. 10 peptides per liposome; Peptide transport rate compared to control without CP^Fs (period of 40 min at 45°C): drastically reduced the peptide transport rate; Turnover of wild-type TmrAB over long-term incubation (period of 40 min at 45°C): a single turnover driving peptide transport was observed; Period of conformational arrest of wild-type TmrAB (two consecutive cycles): 2 h
